Measurements taken from ChEMBL document CHEMBL1139897, “Design of potent PPARalpha agonists” (Bioorg Med Chem Lett, 2007).

Legend:
[1] = biological target: T1, Peroxisome proliferator-activated receptor alpha (Homo sapiens, UniProt Q07869); test: Agonist activity at human PPARalpha by transactivation assay; format: functional
T1 sequence (Q07869 whole entry): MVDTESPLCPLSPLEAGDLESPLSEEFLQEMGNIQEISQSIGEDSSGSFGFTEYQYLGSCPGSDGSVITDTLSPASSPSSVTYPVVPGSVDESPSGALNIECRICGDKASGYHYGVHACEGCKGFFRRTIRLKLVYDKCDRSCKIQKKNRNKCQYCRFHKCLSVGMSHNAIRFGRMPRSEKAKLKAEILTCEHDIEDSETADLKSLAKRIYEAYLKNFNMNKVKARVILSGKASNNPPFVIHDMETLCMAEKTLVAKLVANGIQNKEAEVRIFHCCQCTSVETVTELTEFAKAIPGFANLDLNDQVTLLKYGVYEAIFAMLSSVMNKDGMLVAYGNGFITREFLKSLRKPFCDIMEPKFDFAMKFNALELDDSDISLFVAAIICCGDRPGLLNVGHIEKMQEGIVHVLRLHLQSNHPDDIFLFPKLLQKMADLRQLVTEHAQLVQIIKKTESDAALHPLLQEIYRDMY

[2] = biological target: T2, Peroxisome proliferator-activated receptor delta (Homo sapiens, UniProt Q03181); test: Agonist activity at human PPARdelta by transactivation assay; format: functional
T2 sequence (Q03181 whole entry): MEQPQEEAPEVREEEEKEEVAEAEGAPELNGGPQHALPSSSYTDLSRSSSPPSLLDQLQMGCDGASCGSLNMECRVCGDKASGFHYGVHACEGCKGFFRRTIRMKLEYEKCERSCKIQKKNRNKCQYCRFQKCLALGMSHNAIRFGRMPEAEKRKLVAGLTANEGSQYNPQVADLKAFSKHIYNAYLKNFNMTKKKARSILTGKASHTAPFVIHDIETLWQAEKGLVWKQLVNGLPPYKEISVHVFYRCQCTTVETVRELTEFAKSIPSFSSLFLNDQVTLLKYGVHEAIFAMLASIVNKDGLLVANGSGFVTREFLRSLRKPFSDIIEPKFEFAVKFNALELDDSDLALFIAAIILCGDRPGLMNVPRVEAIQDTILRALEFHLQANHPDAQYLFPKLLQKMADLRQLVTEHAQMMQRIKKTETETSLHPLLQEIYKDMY

[3] = biological target: T3, Peroxisome proliferator-activated receptor alpha (Homo sapiens) (UniProt Q07869); test: Agonist activity at human PPARalpha by transactivation assay relative to WY-14643; format: functional
T3 sequence (whole entry): T1 sequence (Q07869 whole entry)

[4] = biological target: T4, Peroxisome proliferator-activated receptor gamma (Homo sapiens, UniProt P37231)
T4 sequence (P37231 whole entry): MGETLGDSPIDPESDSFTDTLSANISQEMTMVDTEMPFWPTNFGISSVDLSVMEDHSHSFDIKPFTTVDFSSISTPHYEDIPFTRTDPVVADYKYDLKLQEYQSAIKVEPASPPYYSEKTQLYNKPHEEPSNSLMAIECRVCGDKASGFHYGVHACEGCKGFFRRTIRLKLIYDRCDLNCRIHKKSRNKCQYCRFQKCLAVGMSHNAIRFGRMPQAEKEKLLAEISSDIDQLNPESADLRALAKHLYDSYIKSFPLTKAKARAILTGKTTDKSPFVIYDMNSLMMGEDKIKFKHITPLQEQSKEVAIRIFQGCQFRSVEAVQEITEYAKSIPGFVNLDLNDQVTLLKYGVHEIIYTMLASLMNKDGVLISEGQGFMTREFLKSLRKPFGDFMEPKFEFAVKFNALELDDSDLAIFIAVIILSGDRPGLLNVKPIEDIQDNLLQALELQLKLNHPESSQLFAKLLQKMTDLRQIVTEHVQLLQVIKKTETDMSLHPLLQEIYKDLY
Description: Agonist activity at human PPARgamma by transactivation assay

[5] = Oral bioavailability in rat at 2.5 mg/kg; format: ADME, organism-based; details: in vivo
[6] = Cmax in rat at 2.5 mg/kg, po; format: ADME, organism-based; design: dose 2.5 mg/kg, route oral; details: in vivo
[7] = Half life in rat at 2.5 mg/kg, po; format: ADME, organism-based; design: dose 2.5 mg/kg, route oral; details: in vivo

Compound	EC50 [1] [nM]	EC50 [2] [nM]	Activity [3] [%]	EC50 [4] [nM]	bioavailability [5] [%]	Cmax [6] [ng/mL]	half-life [7] [h]
CCO[C@@H](Cc1ccc(OC/C=C/c2cc(OCC(F)(F)F)cc(OCC(F)(F)F)c2)cc1)C(=O)O	2	4000	149	800	–	–	–
CCO[C@@H](Cc1ccc(OC/C=C/c2cc(-c3ccc(C(C)(C)C)cc3)cc(-c3ccc(C(C)(C)C)cc3)c2)cc1)C(=O)O	14000	–	110	1000	–	–	–
CCO[C@@H](Cc1ccc(OC/C=C/c2cc(CCc3ccccc3)cc(CCc3ccccc3)c2)cc1)C(=O)O	30	–	118	5100	–	–	–
CCO[C@@H](Cc1ccc(OC/C=C/c2cc(Br)cc(Br)c2)cc1)C(=O)O	300	20000	121	4100	–	–	–
CCO[C@@H](Cc1ccc(OC/C=C/c2cc(OC(C)C)cc(OC(C)C)c2)cc1)C(=O)O	4	6000	207	80	95	1840	2.42
CCO[C@@H](Cc1ccc(OC/C=C/c2ccccc2)cc1)C(=O)O	1600	18000	169	8000	–	–	–
CCO[C@@H](Cc1ccc(OC/C=C/c2cc(/C=C/c3ccccc3)cc(/C=C/c3ccccc3)c2)cc1)C(=O)O	90	–	66	3000	–	–	–
CCO[C@@H](Cc1ccc(OC/C=C/c2cc(C#Cc3ccccc3)cc(C#Cc3ccccc3)c2)cc1)C(=O)O	500	–	108	3100	–	–	–
CCO[C@@H](Cc1ccc(OC/C=C/c2cc(C(F)(F)F)cc(C(F)(F)F)c2)cc1)C(=O)O	20	1400	195	400	–	–	–
CCO[C@@H](Cc1ccc(OC/C=C/c2cc(OC(=O)c3ccccc3)cc(OC(=O)c3ccccc3)c2)cc1)C(=O)O	50	–	121	190	–	–	–
CCO[C@@H](Cc1ccc(OC/C=C/c2cc(OC3CCCC3)cc(OC3CCCC3)c2)cc1)C(=O)O	20	15000	135	300	–	–	–
CCO[C@@H](Cc1ccc(OC/C=C/c2cc(-c3ccccc3)cc(-c3ccccc3)c2)cc1)C(=O)O	20	4000	30	200	–	–	–
CCO[C@@H](Cc1ccc(OC/C=C(\C)c2ccc(-c3ccccc3)cc2)cc1)C(=O)O	500	–	158	–	–	–	–
CCO[C@@H](Cc1ccc(OC/C=C/c2cc(OC)cc(OC)c2)cc1)C(=O)O	–	13000	186	–	–	–	–
CCOc1cc(/C=C/COc2ccc(C[C@H](OCC)C(=O)O)cc2)cc(OCC)c1	20	7900	197	200	86	6160	2.17
